US7943142B2, “Euglenoid derived alkaloid” (priority 2008, dated 2011)

Columns and labels:
[1] = tested on: GH4C1 rat pituitary cells; assay: Cytotoxicity against GH4C1 rat pituitary tissue culture cells; type: cell-based
[2] = tested on: Gomphonema parvum (diatom); assay: Algal growth (chlorophyll a) under euglenophycin exposure; type: cell-based; conditions: 0.3, 3 and 30 mg/L; chlorophyll a read daily for four days; FIG. 2
Experimental: (§1) Clonal isolates of five representative cyanoprokaryote, diatom, and green algae were grown in BG11 media at 28 C on a 14:10 L:D cycle. At mid-exponential phase growth, […] aliquots of each culture was transferred to 96-well plates. Carrier solvent (control) and euglenophycin toxin was added to three of more replicate vials (at 0, 300 ppb, 3 ppm, and 30 ppm) and growth was monitored for […].
(§2) To evaluate the euglenophycin against the growth rate of selected algal taxa. Cultures of five algal species grown in batch culture were exposed to the euglenophycin. The culture include Microcystis aeruginosa (cyanobacteria), Planktothrix (cyanobacteria), Gomphonema parvum (diatom), Scenedesmus dimorphus (green algae), and Oocystis polymorpha (green algae). The cultures were grown using 14:10 hour L:D cycles, in BG11 culture media. When the alga reached exponential phase, the cells were dispensed into Falcon 96-well tissue culture plates and were dosed with euglenophycin at 0, 0.3, 3 and 30 mg/L concentrations. Solvent blanks (acetone) were included in the control test. Readings of chlorophyll a were made on a BMG Labtech FLUOstar Omega spectrometer daily for four days.

[3] = tested on: Microcystis aeruginosa (cyanobacteria); assay: as above; type: cell-based; conditions: 0.3, 3 and 30 mg/L; chlorophyll a read daily for four days; FIG. 2
Experimental: as §1, §2

[4] = tested on: Oocystis polymorpha (green algae); assay: as above; type: cell-based; conditions: 0.3, 3 and 30 mg/L; chlorophyll a read daily for four days; FIG. 2
Experimental: as §1, §2

[5] = tested on: Planktothrix (cyanobacteria); assay: as above; type: cell-based; conditions: 0.3, 3 and 30 mg/L; chlorophyll a read daily for four days; FIG. 2
Experimental: as §1, §2

[6] = tested on: Scenedesmus dimorphus (green algae); assay: as above; type: cell-based; conditions: 0.3, 3 and 30 mg/L; chlorophyll a read daily for four days; FIG. 2
Experimental: as §1, §2

fish = assay: Fish bioassay (ichthyotoxicity); type: in vivo; conditions: purified toxin
Experimental: The toxic solvent extracts were subjected to HPLC analytical fractionation. Bioassay guided fractionation was used in all phases of separation to track sample activity and cytotoxic and/or ichthyotoxic extracts were identified. HPLC purification was carried out using a WATERS HPLC system (WATERS 2767 Sample Manager, 1525 Binary Pump, 510 pump, WATERS 2996 PDA and a WATERS ZQ Single Quadrature Mass Detector outfitted with an active flow splitter, switching valve using MASS LYNX software (Waters Corporation, Milford, Mass.). The HPLC/MS method was a water/acetone gradient with 0.2% TFA in both solvents. Extract was loaded onto a Phenomenex (Phenomenex Corporation, Torrance, Calif.) C18 LUNA 3 μm particle size, 250×4.6 mm column. The flow scheme conditions were: 1 mL/min flow rate, 90:10 Water/acetone (hold for 2 minutes). This was followed by a linear gradient over 20 minutes to 100% acetone. The acetone was held for 3 minutes prior to original flow conditions. Column temperature was held at 35° C.
NMR and mass spectral analysis provided unambiguous identification of the novel toxin. […] The euglenoids in culture appear to form the toxin independently of growth phase.

[7] = tested on: Ht-29 (ATCC HTB-38) adenocarcinoma cell line; assay: Toxicity against adenocarcinoma cell line Ht-29 (MTS or MTT assay); type: cell-based; conditions: summary statement; test of Example 3 / FIG. 3
Experimental: Specifically, cancer cells were grown to mid-exponential growth phase, aliquots were added to tissue culture plates with carrier (control) and varying euglenophycin toxin (25, 50, 100 mg/L final concentration), with and without 5-fluorouracil and maintained in dimethyl sulfoxide. Growth was monitored by colorimetric change associated with respiration using MTS or MTT assay).

`CCC/C=C\CC/C=C/C=C/C1CCCC(CCCCO)N1` (centres unmarked) [euglenophycin] was tested, and the “toxicity (cytotoxic activity) towards GH4C1 rat pituitary cells” value [1] was “toxicity”, the “effect on culture (chlorophyll a)” value [2] was “negatively affected” and the “effect on culture (chlorophyll a)” value [3] was “negatively affected”. For the same compound, the “effect on culture (chlorophyll a)” value [4] was “negatively affected”, the “effect on culture (chlorophyll a)” value [5] was “negatively affected” and the “effect on culture (chlorophyll a)” value [6] was “negatively affected”. For the same compound, the “fish mortality on re-exposure to the toxin” value (fish) was “fish mortalities” and the “activity against cancerous cell lines” value [7] was “activity”.
